Test results taken from US20240409510A1 (priority 2022, published 2024).

Target: SARS-CoV-2 3CLpro (Severe acute respiratory syndrome coronavirus 2, UniProt P0DTD1)
Assay type: biochemical
Conditions: pH 7.5

Compound	Activity of SARS-CoV-2 MPro inhibitors
CC(C)(C)C(NC(=O)C(F)(F)F)C(=O)N1C[C@H]2[C@@H](C1C(=O)N[C@@H](C[C@@H]1CCNC1=O)C(=O)C(=O)c1ccccc1)C2(C)C (stereo partly shown) [Compound 3]	A+++ (key: A >100 μM; A+ <50 μM; A++ <10 μM; A+++ <1 μM)
CC(C)(C)[C@H](NC(=O)/C=C/c1ccccc1)C(=O)N1Cc2ccccc2C[C@H]1C(=O)N[C@@H](C[C@@H]1CCNC1=O)C(=O)C(=O)c1ccccc1 [Compound 18]	A+++ (key: A >100 μM; A+ <50 μM; A++ <10 μM; A+++ <1 μM)
CC(C)O[C@@H]1C[C@@H](C(=O)NC(C[C@@H]2CCNC2=O)C(=O)C(=O)c2ccccc2)N(C(=O)[C@@H](NC(=O)C(F)(F)F)C(C)(C)C)C1 (stereo partly shown) [Compound 2]	A+++ (key: A >100 μM; A+ <50 μM; A++ <10 μM; A+++ <1 μM)
CC(C)(C)[C@H](NC(=O)C(F)(F)F)C(=O)N1Cc2ccccc2C[C@H]1C(=O)NC(CC1CCCNC1=O)C(=O)C(=O)c1ccccc1 (stereo partly shown) [Compound 13]	A+ (key: A >100 μM; A+ <50 μM; A++ <10 μM; A+++ <1 μM)
Cc1ccc(C(=O)C(=O)[C@H](C[C@@H]2CCNC2=O)NC(=O)C2[C@@H]3[C@H](CN2C(=O)C(NC(=O)C(F)(F)F)C(C)(C)C)C3(C)C)cc1 (stereo partly shown) [Compound 5]	A+++ (key: A >100 μM; A+ <50 μM; A++ <10 μM; A+++ <1 μM)
CC(C)(C)C(NC(=O)C(F)(F)F)C(=O)N1C[C@H]2[C@@H](C1C(=O)N[C@@H](C[C@@H]1CCNC1=O)C(=O)C(=O)c1ccc(F)cc1)C2(C)C (stereo partly shown) [Compound 7]	A+++ (key: A >100 μM; A+ <50 μM; A++ <10 μM; A+++ <1 μM)
CCCC(=O)C(=O)[C@H](C[C@@H]1CCNC1=O)NC(=O)C1[C@@H]2[C@H](CN1C(=O)C(NC(=O)C(F)(F)F)C(C)(C)C)C2(C)C (stereo partly shown) [Compound 11]	A+++ (key: A >100 μM; A+ <50 μM; A++ <10 μM; A+++ <1 μM)
CC(C)(C)C(NC(=O)C(Cl)(Cl)Cl)C(=O)N1C[C@H]2[C@@H](C1C(=O)N[C@@H](C[C@@H]1CCNC1=O)C(=O)C(=O)c1ccccc1)C2(C)C (stereo partly shown) [Compound 9]	A (key: A >100 μM; A+ <50 μM; A++ <10 μM; A+++ <1 μM)
CC(C)(C)OC(=O)NC(C(=O)N1C[C@H]2[C@@H](C1C(=O)N[C@@H](C[C@@H]1CCNC1=O)C(=O)C(=O)c1ccc(F)cc1)C2(C)C)C(C)(C)C (stereo partly shown) [Compound 6]	A+++ (key: A >100 μM; A+ <50 μM; A++ <10 μM; A+++ <1 μM)
CCCN(CCC)[C@@H]1C[C@@H](C(=O)NC(C[C@@H]2CCNC2=O)C(=O)C(=O)c2ccccc2)N(C(=O)[C@@H](NC(=O)C(F)(F)F)C(C)(C)C)C1 (stereo partly shown) [Compound 1]	A+++ (key: A >100 μM; A+ <50 μM; A++ <10 μM; A+++ <1 μM)
Cc1cc(C)cc(C(=O)C(=O)[C@H](C[C@@H]2CCNC2=O)NC(=O)C2[C@@H]3[C@H](CN2C(=O)C(NC(=O)C(F)(F)F)C(C)(C)C)C3(C)C)c1 (stereo partly shown) [Compound 10]	A+++ (key: A >100 μM; A+ <50 μM; A++ <10 μM; A+++ <1 μM)
CC(C)(C)[C@H](NC(=O)C(F)(F)F)C(=O)N1Cc2ccccc2C[C@H]1C(=O)N[C@@H](C[C@@H]1CCNC1=O)C(=O)C(=O)c1ccccc1 [Compound 12]	A+++ (key: A >100 μM; A+ <50 μM; A++ <10 μM; A+++ <1 μM)
CC(C)(C)[C@H](NC(=O)C(Cl)(Cl)Cl)C(=O)N1C[C@H]2[C@@H]([C@H]1C(=O)NC(C[C@@H]1CCNC1=O)C(=O)C(=O)c1ccccc1)C2(C)C (stereo partly shown) [Compound 4]	A++ (key: A >100 μM; A+ <50 μM; A++ <10 μM; A+++ <1 μM)
COc1ccccc1C(=O)C(=O)[C@H](C[C@@H]1CCNC1=O)NC(=O)C1[C@@H]2[C@H](CN1C(=O)C(NC(=O)C(F)(F)F)C(C)(C)C)C2(C)C (stereo partly shown) [Compound 15]	A+++ (key: A >100 μM; A+ <50 μM; A++ <10 μM; A+++ <1 μM)
CC(C)(C)[C@H](NC(=O)CCc1ccccc1)C(=O)N1Cc2ccccc2C[C@H]1C(=O)N[C@@H](C[C@@H]1CCNC1=O)C(=O)C(=O)c1ccccc1 [Compound 17]	A+++ (key: A >100 μM; A+ <50 μM; A++ <10 μM; A+++ <1 μM)
CC(C)(C)C(NC(=O)C(F)(F)F)C(=O)N1C[C@H]2[C@@H](C1C(=O)N[C@@H](C[C@@H]1CCNC1=O)C(=O)C(=O)c1ccncc1)C2(C)C (stereo partly shown) [Compound 20]	A++ (key: A >100 μM; A+ <50 μM; A++ <10 μM; A+++ <1 μM)
CCCC(=O)C(=O)[C@H](C[C@@H]1CCNC1=O)NC(=O)[C@@H]1Cc2ccccc2CN1C(=O)[C@@H](NC(=O)OCc1ccncc1)C(C)(C)C [Compound 16]	A+++ (key: A >100 μM; A+ <50 μM; A++ <10 μM; A+++ <1 μM)
CCCC(=O)C(=O)[C@H](C[C@@H]1CCNC1=O)NC(=O)[C@@H]1Cc2ccccc2CN1C(=O)[C@@H](NC(=O)C(F)(F)F)C(C)(C)C [Compound 14]	A++ (key: A >100 μM; A+ <50 μM; A++ <10 μM; A+++ <1 μM)
COc1ccc(C(=O)C(=O)[C@H](C[C@@H]2CCNC2=O)NC(=O)C2[C@@H]3[C@H](CN2C(=O)C(NC(=O)C(F)(F)F)C(C)(C)C)C3(C)C)cc1 (stereo partly shown) [Compound 8]	A+++ (key: A >100 μM; A+ <50 μM; A++ <10 μM; A+++ <1 μM)
